In EPA's ToxRefDB 2:

Columns and labels:
rabbit [1] = settings: Prenatal developmental toxicity study, new zealand white, Oral, Gavage/Intubation, dose end: 18 GD
dog = settings: Chronic toxicity, beagle, Oral, Feed, dose end: 104 week
rat [2] = settings: Prenatal developmental toxicity study, sprague dawley, Injection, Intraperitoneal, dose end: 15 GD
rat [3] = settings: Sub-acute repeat dose toxicity, sprague dawley, Oral, Gavage/Intubation, dose end: 28 day
rat [4] = settings: Prenatal developmental toxicity study, sprague dawley, Oral, Gavage/Intubation, dose end: 15 GD
rat [5] = settings: Prenatal developmental toxicity study, sprague dawley, Oral, Gavage/Intubation, dose end: 15 GD; remark: listed apart in the source
rabbit [6] = settings: Prenatal developmental toxicity study, new zealand white, Oral, Gavage/Intubation, dose end: 18 GD; remark: listed apart in the source
rat [7] = settings: Multigenerational reproductive toxicity study, sprague dawley, Oral, Feed, dose end: 2 generation
[8] = group: cholinesterase, cholinesterase / cholinesterase / cholinesterase / brain (regional) cholinesterase (che) + cholinesterase / cholinesterase / cholinesterase…
[9] = group: developmental, developmental / developmental malformation / bone / [other]
[10] = group: maternal, systemic / in life observation / body weight / body weight + systemic / in life observation / body weight / body weight gain + systemic / in…
[11] = group: cholinesterase, cholinesterase / cholinesterase / cholinesterase / plasma cholinesterase (che) + cholinesterase / cholinesterase / cholinesterase / brain …
[12] = group: systemic, systemic / clinical chemistry / alkaline phosphatase (alp/alk) / alkaline phosphatase (alp/alk)
[13] = group: developmental, systemic / in life observation / body weight / fetal weight
[14] = group: maternal, systemic / in life observation / clinical signs / [other] + systemic / in life observation / clinical signs / altered breathing rate + …
[15] = group: maternal, reproductive / reproductive performance / estrous cycle / abnormal
[16] = group: systemic, systemic / clinical chemistry / alanine aminotransferase (alt/sgpt) / alanine aminotransferase (alt/sgpt) + systemic / clinical chemistry / …
[17] = group: systemic, systemic / organ weight / uterus / relative to body weight + systemic / organ weight / seminal vesicle / relative to body weight
[18] = group: developmental, developmental / developmental malformation / bone / enlarged fontanel + developmental / developmental malformation / bone / incomplete …
[19] = group: maternal, systemic / in life observation / clinical signs / motor activity + systemic / in life observation / clinical signs / respiration (rales) + …
[20] = group: developmental, developmental / developmental malformation / bone / full supernumerary + developmental / developmental malformation / diaphragm / …
[21] = group: maternal, systemic / in life observation / body weight / body weight gain + systemic / in life observation / clinical signs / discharge on cageboard…
[22] = group: developmental, developmental / developmental malformation / bone / full supernumerary + developmental / developmental malformation / bone / incomplete …
[23] = group: maternal, reproductive / reproductive performance / postimplantation loss / postimplantation loss + systemic / in life observation / clinical signs / …
[24] = group: offspring, developmental / offspring survival late / lactation index / lactation index + developmental / offspring survival late / viability index / …
[25] = group: parental, systemic / in life observation / body weight / body weight + systemic / in life observation / body weight / body weight gain
[26] = group: parental, systemic / in life observation / body weight / body weight + systemic / in life observation / body weight / body weight gain + systemic / in…

SMILES: CCOP(=S)(NC(C)C)Oc1ccccc1C(=O)OC(C)C (stereo unspecified) [Isofenphos]
- LEL (rabbit [1]; [8]): 1.25 mg/kg/day
- LOAEL (rabbit [1]; [8]): 1.25 mg/kg/day
- NEL (rabbit [1]; [8]): 0.25 mg/kg/day
- NOAEL (rabbit [1]; [8]): 0.25 mg/kg/day
- LEL (rabbit [1]; [9]): 7.5 mg/kg/day
- LOAEL (rabbit [1]; [9]): > 7.5 mg/kg/day
- NEL (rabbit [1]; [9]): 1.25 mg/kg/day
- NOAEL (rabbit [1]; [9]): ≥ 7.5 mg/kg/day
- LEL (rabbit [1]; [10]): 7.5 mg/kg/day
- LOAEL (rabbit [1]; [10]): 7.5 mg/kg/day
- NEL (rabbit [1]; [10]): 1.25 mg/kg/day
- NOAEL (rabbit [1]; [10]): 1.25 mg/kg/day
- LOAEL (dog; group: cholinesterase, cholinesterase / cholinesterase / cholinesterase / plasma cholinesterase (che)): 0.45 mg/kg/day
- NEL (dog; [11]): 0.09 mg/kg/day
- NOAEL (dog; [11]): 0.09 mg/kg/day
- LEL (dog; group: cholinesterase, cholinesterase / cholinesterase / cholinesterase / plasma cholinesterase (che) + cholinesterase / cholinesterase / cholinesterase / …): 0.45 mg/kg/day
- LEL (dog; [12]): 3.43 mg/kg/day
- LOAEL (dog; [12]): > 3.43 mg/kg/day
- NEL (dog; [12]): 0.53 mg/kg/day
- NOAEL (dog; [12]): ≥ 3.43 mg/kg/day

SMILES: CC(C)NCC(O)c1ccc(O)c(O)c1.Cl (stereo unspecified) [Isoproterenol hydrochloride]
- LEL (rat [2]; [13]): 20 mg/kg/day
- LOAEL (rat [2]; [13]): > 80 mg/kg/day
- NEL (rat [2]; [13]): < 20 mg/kg/day
- NOAEL (rat [2]; [13]): ≥ 80 mg/kg/day
- LEL (rat [2]; [14]): 20 mg/kg/day
- LOAEL (rat [2]; [14]): > 80 mg/kg/day
- NEL (rat [2]; [14]): < 20 mg/kg/day
- NOAEL (rat [2]; [14]): ≥ 80 mg/kg/day

SMILES: CC(=O)N1CCN(c2ccc(OC[C@@H]3CO[C@@](Cn4ccnc4)(c4ccc(Cl)cc4Cl)O3)cc2)CC1 [Ketoconazole]
- LEL (rat [3]; [15]): 100 mg/kg/day
- LOAEL (rat [3]; [15]): > 100 mg/kg/day
- NEL (rat [3]; [15]): 25 mg/kg/day
- NOAEL (rat [3]; [15]): ≥ 100 mg/kg/day
- LOAEL (rat [3]; [16]): > 100 mg/kg/day
- NOAEL (rat [3]; [16]): ≥ 100 mg/kg/day
- LEL (rat [3]; [17]): 6.25 mg/kg/day
- NEL (rat [3]; [17]): < 6.25 mg/kg/day

SMILES: CC1COC(=O)O1 (stereo unspecified) [Propylene carbonate]
- LEL (rat [4]; [18]): 5000 mg/kg/day
- LOAEL (rat [4]; [18]): 5000 mg/kg/day
- NEL (rat [4]; [18]): 3000 mg/kg/day
- NOAEL (rat [4]; [18]): 3000 mg/kg/day
- LEL (rat [4]; [19]): 3000 mg/kg/day
- LOAEL (rat [4]; [19]): 3000 mg/kg/day
- NEL (rat [4]; [19]): 1000 mg/kg/day
- NOAEL (rat [4]; [19]): 1000 mg/kg/day

SMILES: CCCCOCCOC(=O)COc1nc(Cl)c(Cl)cc1Cl [Triclopyr-butotyl]
- LEL (rat [5]; [20]): 300 mg/kg/day
- LOAEL (rat [5]; [20]): > 300 mg/kg/day
- NEL (rat [5]; [20]): 100 mg/kg/day
- NOAEL (rat [5]; [20]): ≥ 300 mg/kg/day
- LEL (rat [5]; group: maternal, systemic / in life observation / body weight / body weight gain): 30 mg/kg/day
- LOAEL (rat [5]; [21]): > 300 mg/kg/day
- NEL (rat [5]; [21]): 5 mg/kg/day
- NOAEL (rat [5]; [21]): ≥ 300 mg/kg/day
- LEL (rabbit [6]; [22]): 100 mg/kg/day
- LOAEL (rabbit [6]; [22]): 100 mg/kg/day
- NEL (rabbit [6]; [22]): 30 mg/kg/day
- NOAEL (rabbit [6]; [22]): 30 mg/kg/day
- LEL (rabbit [6]; [23]): 100 mg/kg/day
- LOAEL (rabbit [6]; [23]): 100 mg/kg/day
- NEL (rabbit [6]; [23]): 30 mg/kg/day
- NOAEL (rabbit [6]; [23]): 30 mg/kg/day

SMILES: CCOC(=O)C1CC(=O)C(=C(O)C2CC2)C(=O)C1 (stereo unspecified) [Trinexapac-ethyl]
- LEL (rat [7]; [24]): 1250 mg/kg/day
- NEL (rat [7]; [24]): 592 mg/kg/day
- LEL (rat [7]; [25]): 592 mg/kg/day
- LOAEL (rat [7]; [25]): 592 mg/kg/day
- NEL (rat [7]; [26]): 59.1 mg/kg/day
- NOAEL (rat [7]; [26]): 59.1 mg/kg/day
